Source: patent publication US20240174680A1, “CDK2 INHIBITORS AND METHODS OF USING THE SAME” (Cedilla Therapeutics, Inc., priority 2021, published 2024)

Target: CDK2/Cyclin E1 (Homo sapiens, UniProt P24941)
Test: CDK2/Cyclin E1 Caliper LabChip EZ Reader mobility shift assay
Type: biochemical
Design: purchased Eurofins 14-475
Details: read-out: Caliper Assay (CDK2/CCNE1): IC50
Procedure, shortened: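 Substrate-to-product conversion of fluorescent peptide (1.5 μM final) read by capillary electrophoresis after 100 min reaction, EDTA-quenched. Enzyme (2.5 nM final) and ATP (100 μM final) were preincubated 30 min with inhibitor dilutions first. % activity vs concentration fitted four-parameter for IC50.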

| SMILES | IC50 [nM] |
| --- | --- |
| C[C@@H](OCc1ccccc1)[C@H](NC(=O)C1CN(C(=O)c2cnn(Cc3ccccc3)c2)CC12CN(C(=O)[C@H]1CC1(C)C)C2)C(=O)NCCO (some centres unmarked) [I-30] | 10 to 100 |
| CNC(=O)[C@@H](NC(=O)[C@@H]1CN(Cc2cnn(C)c2)CC12CN(C(=O)[C@H]1CC1(C)C)C2)[C@@H](C)OCc1ccccc1 [I-47A] | > 10000 |
| CC1(C)C[C@@H]1C(=O)N1CC2(CN(C(=O)c3cnn(Cc4ccccc4)c3)C[C@H]2C(=O)NCCOCc2ccccc2)C1 [I-96A] | 100 to 1000 |
| COCCNC(=O)[C@H]1CN(C(=O)c2cnn(Cc3ccccc3)c2)CC12CN(C(=O)[C@H]1CC1(C)C)C2 [I-122B] | > 10000 |
| CC1(C)C[C@@H]1C(=O)N1CC2(CN(C(=O)c3cnn(Cc4ccccc4)c3)C[C@@H]2C(=O)N[C@H]2CCc3cc(Cl)ccc32)C1 [I-120B] | 1000 to 10000 |
| C[C@@H](OCc1ccccc1)[C@H](NC(=O)C1CN(C(=O)c2cnn(Cc3ccccc3)c2)CC12CN(C(=O)[C@H]1CC1(C)C)C2)C(=O)N1CCOCC1 (some centres unmarked) [I-86] | 10 to 100 |
| C[C@@H](OCC1CCCCC1)[C@@H](CO)NC(=O)[C@H]1CN(C(=O)c2cnn(Cc3ccccc3)c2)CC12CN(C(=O)[C@H]1CC1(C)C)C2 [I-135B] | 100 to 1000 |
| CC1(C)C[C@@H]1C(=O)N1CC2(CN(C(=O)c3cnn(Cc4ccccc4)c3)C[C@@H]2C(=O)Nc2cccc(Cc3ccccc3)c2)C1 [I-75B] | 1000 to 10000 |
| CNC(=O)[C@@H](NC(=O)[C@H]1CN(C(=O)c2cnn(Cc3ccccc3)c2)CC12CN(C(=O)C1(F)CC1)C2)[C@@H](C)OCc1ccccc1 [I-71B] | > 10000 |
| CNC(=O)[C@@H](NC(=O)[C@H]1CN(C(=O)c2cncs2)CC12CN(C(=O)CC1CC1)C2)[C@@H](C)OCC1CCCCC1 [I-103B] | > 10000 |
| CNC(=O)[C@@H](NC(=O)[C@@H]1CN(C(=O)c2cn[nH]c2)CC12CN(C(=O)CC1CC1)C2)[C@@H](C)OCc1ccccc1 [I-41A, (S)—N-((2S,3R)-3-(benzyloxy)-1-(methylamino)-1-oxobutan-2-yl)-2-(2-cyclopropylacetyl)-6-(1H-pyrazole-4-carbonyl)-2,6-diazaspiro[3.4]octane-8-carboxamide] | > 10000 |
| CC1(C)C[C@@H]1C(=O)N1CC2(CN(C(=O)c3cnn(Cc4ccccc4)c3)C[C@@H]2C(=O)Nc2ccc(-c3ccccc3)cc2)C1 [I-81B] | 1000 to 10000 |
| CC1(C)C[C@@H]1C(=O)N1CC2(CN(C(=O)c3cnn(Cc4ccccc4)c3)C[C@H]2C(=O)Nc2ccc(-c3ccccc3)cc2)C1 [I-81A] | 100 to 1000 |
| CNC(=O)[C@@H](NC(=O)[C@@H]1CN(C(=O)c2cnn(Cc3ccccc3)c2)CC12CN(C(=O)C1(c3ccc(C(C)(C)C)cc3)CC1)C2)[C@@H](C)OCc1ccccc1 [I-80A] | > 10000 |
| CC1(C)C[C@@H]1C(=O)N1CC2(CN(C(=O)c3cnn(Cc4ccccc4)c3)C[C@@H]2C(=O)NC2CCN(C(=O)c3ccccc3)CC2)C1 [I-61B] | > 10000 |
| CNC(=O)[C@@H](NC(=O)[C@H]1CN(C(=O)c2ccncc2)CC12CN(C(=O)[C@H]1CC1(C)C)C2)[C@@H](C)OCc1ccccc1 [I-46B] | > 10000 |
| CNC(=O)[C@@H](NC(=O)[C@@H]1CN(C(=O)c2cnn(CC3CCOCC3)c2)CC12CN(C(=O)[C@H]1CC1(C)C)C2)[C@@H](C)OCC1CCCCC1 [I-121A] | 10 to 100 |
| CC1(C)C[C@@H]1C(=O)N1CC2(CN(C(=O)c3cnn(Cc4ccccc4)c3)C[C@@H]2C(=O)Nc2ccc(Cc3ccccc3)cc2)C1 [I-84B] | 1000 to 10000 |
| CNC(=O)[C@@H](NC(=O)[C@H]1CN(C(=O)c2cnc[nH]2)CC12CN(C(=O)[C@H]1CC1(C)C)C2)[C@@H](C)OCc1ccccc1 [I-44B] | > 10000 |
| C[C@@H](OCc1ccccc1)[C@H](NC(=O)C1CN(C(=O)c2cnn(Cc3ccccc3)c2)CC12CN(C(=O)[C@H]1CC1(C)C)C2)C(=O)N1CCC(F)(F)CC1 (some centres unmarked) [I-85] | 10 to 100 |

Now from value to compound:

| IC50 [nM] | SMILES |
| --- | --- |
| 100 to 1000 | CNC(=O)[C@@H](NC(=O)[C@@H]1CN(C(=O)c2cnn(Cc3ccccc3)c2)CC12CN(C(=O)[C@H]1CC1(C)C)C2)C(C)(C)SCc1ccccc1 [I-171A, (S)-6-(1-benzyl-1H-pyrazole-4-carbonyl)-N—((R)-3-(benzylthio)-3-methyl-1-(methylamino)-1-oxobutan-2-yl)-2-((S)-2,2-dimethylcyclopropane-1-carbonyl)-2,6-diazaspiro[3.4]octane-8-carboxamide] |
| 10 to 100 | C[C@@H](OCc1ccccc1)[C@H](NC(=O)[C@@H]1CN(C(=O)c2cnn(Cc3ccccc3)c2)CC12CN(C(=O)[C@H]1CC1(C)C)C2)C(N)=O [I-176A] |
| 1000 to 10000 | CC1(C)C[C@@H]1C(=O)N1CC2(CN(C(=O)c3cnn(Cc4ccccc4)c3)CC2C(=O)NC2CNCCOC2)C1 (some centres unmarked) [I-245] |
| 10 to 100 | CNC(=O)[C@@H](NC(=O)[C@@H]1CN(C(=O)c2cnn(Cc3ccccc3)c2)CC12CN(C(=O)C(C)(C)C)C2)[C@@H](C)OCC1CCCCC1 [I-174A] |
| ≤ 10 | CNC(=O)[C@@H](NC(=O)[C@@H]1CN(C(=O)c2cncs2)CC12CN(C(=O)[C@H]1CC1(C)C)C2)[C@@H](C)OCC1CCC2(CC1)CC2 [I-355] |
| 1000 to 10000 | CNC(=O)[C@@H](NC(=O)[C@H]1CN(C(=O)c2cnn(Cc3ccccc3)c2)CC12CN(C(=O)[C@H]1CC1(C)C)C2)[C@@H](C)OCC1CCC1 [I-144B] |
| 10 to 100 | CNC(=O)C(NC(=O)[C@@H]1CN(C(=O)c2cncs2)CC12CN(C(=O)[C@H]1CC1(C)C)C2)c1cccc(C2CCC(F)(F)CC2)n1 (some centres unmarked) [I-411] |
| 10 to 100 | Cc1nc(C)c(C(=O)N2C[C@@H](C(=O)N[C@H](C(=O)N3CCC(OC(F)(F)F)CC3)[C@@H](C)OCC34CCC(CC3)OC4)C3(C2)CN(C(=O)[C@H]2CC2(C)C)C3)s1 [I-455] |
| ≤ 10 | C[C@@H](OCC12CCC(CC1)OC2)[C@H](NC(=O)[C@@H]1CN(C(=O)c2cncs2)CC12CN(C(=O)[C@H]1CC1(C)C)C2)C(=O)N1CCCC2(COC2)C1 [I-453] |
| > 10000 | CN1CC[C@@H](NC(=O)[C@@H]2CN(C(=O)c3cnn(Cc4ccccc4)c3)CC23CN(C(=O)[C@H]2CC2(C)C)C3)C1=O [I-258] |
| 10 to 100 | CNC(=O)[C@@H](NC(=O)[C@@H]1CN(C(=O)c2cnn(Cc3ccccc3)c2)CC12CN(C(=O)[C@H]1CC1(C)C)C2)[C@@H](C)OCC1CCC(C(F)(F)F)CC1 (some centres unmarked) [I-141A] |
| > 10000 | COC(=O)C1(NC(=O)[C@H]2CN(C(=O)c3cnn(Cc4ccccc4)c3)CC23CN(C(=O)[C@H]2CC2(C)C)C3)COC1 [I-142A] |
| 1000 to 10000 | CN(C)C(=O)C(NC(=O)[C@@H]1CN(C(=O)c2cncs2)CC12CN(C(=O)C(C)(C)C1CC1)C2)c1cccc(C2CCOCC2)n1 (some centres unmarked) [I-340] |
| 100 to 1000 | CNC(=O)[C@@H](NC(=O)C1(F)CN(C(=O)c2cnn(Cc3ccccc3)c2)CC12CN(C(=O)[C@H]1CC1(C)C)C2)[C@@H](C)OCc1ccccc1 (some centres unmarked) [I-500] |
| 10 to 100 | CNC(=O)[C@@H](NC(=O)[C@@H]1CN(C(=O)c2cnc(C)s2)CC12CN(C(=O)[C@H]1CC1(C)C)C2)[C@@H](C)OCC1CCCCC1 [I-156A] |
| 1000 to 10000 | CNC(=O)[C@@H](NC(=O)[C@@H]1CN(C(=O)c2cnn(Cc3ccccc3)c2)CC12CN(C(=O)NC(C)C)C2)[C@@H](C)OCC1CCCCC1 [I-267] |
| ≤ 10 | C[C@@H](OCC1CCC(F)(F)CC1)[C@H](NC(=O)[C@@H]1CN(C(=O)c2cncs2)CC12CN(C(=O)[C@H]1CC1(C)C)C2)C(=O)N1CCC(C)(C)CC1 [I-386] |
| ≤ 10 | C[C@@H](OCC1CCCCC1)[C@H](NC(=O)[C@@H]1CN(C(=O)c2cnn(Cc3ccccc3)c2)CC12CN(C(=O)[C@H]1CC1(C)C)C2)C(=O)NCCC(=O)OC(C)(C)C [I-478] |
| 1000 to 10000 | CC1(C)C[C@@H]1C(=O)N1CC2(CN(C(=O)c3cncs3)C[C@H]2C(=O)NC(c2cccc(C3CCOCC3)n2)C2CCCO2)C1 (some centres unmarked) [I-497] |
| ≤ 10 | COC[C@@H]1CCCN(C(=O)[C@@H](NC(=O)C2CN(C(=O)c3cncs3)CC23CN(C(=O)[C@H]2CC2(C)C)C3)[C@@H](C)OCC2CCCCC2)C1 (some centres unmarked) [I-195] |
| 1000 to 10000 | CNC(=O)[C@H](CCCC1CCCCC1)NC(=O)[C@H]1CN(C(=O)c2cnn(Cc3ccccc3)c2)CC12CN(C(=O)[C@H]1CC1(C)C)C2 [I-155B] |
| > 10000 | CNC(=O)C(NC(=O)[C@@H]1CN(C(=O)c2cncs2)CC12CN(C(=O)[C@H]1CC1(C)C)C2)C(O)Cc1ccccc1 (some centres unmarked) [I-356] |
| > 10000 | CNC(=O)[C@@H](NC(=O)[C@@H]1CN(C(=O)c2cncs2)CC12CN(Cc1ccn[nH]1)C2)[C@@H](C)OCC12CCC(CC1)OC2 [I-351] |
| 100 to 1000 | CNC(=O)C(NC(=O)[C@@H]1CN(C(=O)c2cncs2)CC12CN(C(=O)[C@H]1CC1(C)C)C2)c1cccc(N2CCCCC2)n1 (some centres unmarked) [I-432] |
| 100 to 1000 | C[C@@H](OCC1(C(F)(F)F)CC1)[C@H](NC(=O)[C@@H]1CN(C(=O)c2cncs2)CC12CN(C(=O)[C@H]1CC1(C)C)C2)C(=O)N1CCC(F)(F)CC1 [I-287] |
| ≤ 10 | C[C@@H](OCC1CCC2(CCC2)CC1)[C@H](NC(=O)[C@@H]1CN(C(=O)c2cnn(Cc3ccccc3)c2)CC12CN(C(=O)[C@H]1CC1(C)C)C2)C(=O)N1CCC(c2cnc[nH]2)CC1 [I-444] |
| 10 to 100 | C[C@@H](OC1(C2CCCCC2)CC1)[C@H](NC(=O)[C@@H]1CN(C(=O)c2cncs2)CC12CN(C(=O)[C@H]1CC1(C)C)C2)C(=O)N1CCCCC1 [I-357] |
| 1000 to 10000 | CNC(=O)[C@@H](NC(=O)[C@@H]1CN(C(=O)c2cncs2)CC12CN(CC1COC1)C2)[C@@H](C)OCC12CCC(CC1)OC2 [I-348] |
| 100 to 1000 | COC[C@H]1CCCN(C(=O)[C@@H](NC(=O)[C@@H]2CN(C(=O)c3cncs3)CC23CN(C(=O)[C@H]2CC2(C)C)C3)[C@@H](C)OC[C@H]2CC[C@H](NC(C)=O)CC2)C1 [I-434] |
| > 10000 | CNC(=O)[C@@H](NC(=O)[C@H]1CN(C(=O)c2cnn(Cc3ccccc3)c2)CC12CN(C(=O)[C@H]1CC1(C)C)C2)[C@H](C)OCC1CCCCC1 [I-165] |
